Source: patent US20210214375A1 (LUNDBECK LA JOLLA RESEARCH CENTER, INC., priority 2017, published 2021)
pIC50: −log10 of the molar value. Like-named read-outs stand apart in the source and are kept apart here.

Experiments:
MGLL = biological target: T1, MGLL (Mus musculus, UniProt O35678); test: In vitro competitive activity-based protein profiling, mouse brain proteome; type: biochemical
T1 construct: Brain; from tissue; host or cells: mouse brain proteome
T1 sequence (O35678 1-303): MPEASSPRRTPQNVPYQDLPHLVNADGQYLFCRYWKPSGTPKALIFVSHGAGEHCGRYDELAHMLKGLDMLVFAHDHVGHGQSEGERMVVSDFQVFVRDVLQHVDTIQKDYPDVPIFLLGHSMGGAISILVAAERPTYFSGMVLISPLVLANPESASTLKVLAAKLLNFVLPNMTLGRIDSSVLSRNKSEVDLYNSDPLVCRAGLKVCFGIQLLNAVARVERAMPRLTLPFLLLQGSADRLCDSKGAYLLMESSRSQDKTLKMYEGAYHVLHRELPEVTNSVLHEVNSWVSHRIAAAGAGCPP
Protocol: [Worded in the source for another species; this species is reported under the same test.] (§1) Proteomes (human prefrontal cortex or cell membrane fractions) (50 μL, 1.0 mg/mL total protein concentration) were preincubated with varying concentrations of inhibitors at 37° C. After 30 min, FP—Rh or HT-01 (1.0 μL, 50 μM in DMSO) was added and the mixture was incubated for another 30 min at room temperature. Reactions were quenched with SDS loading buffer (15 μL-4×) and run on SDS-PAGE.

MAGL [1] = biological target: T2, MAGL (Mus musculus, UniProt O35678); test: Mouse brain proteomes from inhibitor treated mice (oral gavage, brain proteomes analyzed 4 h after administration); type: in vivo, mouse (C57Bl/6J); details: brain proteome 4 h after administration, read-out: % Inh 5 mg/kg MGLL (Mouse)
T2 construct: from tissue; host or cells: brain of wild-type C57Bl/6J mice
T2 sequence (O35678 1-303): T1 sequence (O35678 1-303)
Protocol: Compounds are tested to assess their MAGL and serine hydrolase activity using the following in vitro and in vivo assays.
Preparation of Mouse Brain Proteomes from Inhibitor Treated Mice.
Inhibitors were administered to wild-type C57Bl/6J by oral gavage in a vehicle of polyethylene glycol. Each animal was sacrificed 4 h following administration and brain proteomes were prepared and analyzed according to previously established methods (See Niphakis, M. J., et al. (2011) ACS Chem. Neurosci. and Long, J. Z., et al. Nat. Chem. Biol. 5:37-44).

ABHD6 = biological target: T3, ABHD6 (Mus musculus, UniProt Q8R2Y0); test: In vitro competitive activity-based protein profiling, mouse brain proteome, ABHD6; type: biochemical; details: mouse
T3 construct: Brain; from tissue; host or cells: mouse brain proteome
T3 sequence (Q8R2Y0 1-336): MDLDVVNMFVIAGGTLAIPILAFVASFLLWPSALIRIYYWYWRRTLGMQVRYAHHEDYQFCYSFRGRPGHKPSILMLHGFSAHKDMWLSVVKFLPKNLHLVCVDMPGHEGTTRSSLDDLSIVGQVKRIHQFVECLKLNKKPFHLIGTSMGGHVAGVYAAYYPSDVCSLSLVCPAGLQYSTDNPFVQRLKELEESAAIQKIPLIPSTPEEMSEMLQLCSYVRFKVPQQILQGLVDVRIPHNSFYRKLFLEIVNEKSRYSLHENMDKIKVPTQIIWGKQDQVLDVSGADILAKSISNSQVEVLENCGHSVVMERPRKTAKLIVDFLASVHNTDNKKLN
Protocol: [Worded in the source for another target; this target is reported under the same test.] as §1

MAGL [2] = biological target: T4, MAGL (Homo sapiens, UniProt Q99685); test: In vitro competitive activity-based protein profiling (gel-based, FP-Rh or HT-01 probe); type: biochemical
T4 construct: Proteomes (human prefrontal cortex or cell membrane fractions); from tissue
T4 sequence (Q99685 1-303): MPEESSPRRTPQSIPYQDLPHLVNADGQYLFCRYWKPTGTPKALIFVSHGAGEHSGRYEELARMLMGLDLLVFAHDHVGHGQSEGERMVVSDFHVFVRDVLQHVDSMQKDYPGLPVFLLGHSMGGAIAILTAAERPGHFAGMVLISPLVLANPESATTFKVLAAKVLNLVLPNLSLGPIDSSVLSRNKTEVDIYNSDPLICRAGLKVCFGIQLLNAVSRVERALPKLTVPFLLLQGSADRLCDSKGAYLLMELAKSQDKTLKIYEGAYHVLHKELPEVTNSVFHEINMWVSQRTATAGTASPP
Method in brief: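 Readout is SDS-PAGE of probe-labelled proteome after FP-Rh or HT-01 (1.0 μL, 50 μM stock) labelling for 30 min at room temperature. Beforehand, inhibitors at varying concentrations were preincubated 30 min at 37° C with human prefrontal cortex or cell membrane fractions at 1.0 mg/mL total protein.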

[3] = PC3 proteome, read-out: IC50 MGLL PC3 (Human)
[4] = PFC (prefrontal cortex) proteome

pIC50 (MGLL)	inhibition at 5 mg/kg (MAGL [1])	pIC50 (ABHD6)	pIC50 (MAGL [2]; [3])	% Inh MGLL PFC (Human, μM) (MAGL [2]; [4])	pIC50 (MAGL [2]; PFC (prefrontal cortex) proteome, read-out: IC50 MGLL PFC (Human))	SMILES
> 7.00	≥ 75%	< 6.00	–	–	–	O=C(OC(C(F)(F)F)C(F)(F)F)N1CCC2(CCN(Cc3ccc(Cl)cc3N3CCC(F)CC3)CC2)C1 [Example 28, 1,1,1,3,3,3-Hexafluoropropan-2-yl 8-(4-chloro-2-(4-fluoropiperidin-1-yl)benzyl)-2,8-diazaspiro[4.5]decane-2-carboxylate]
> 7.00	≥ 75%	< 6.00	–	–	–	CC(=O)N1CCC2(CC1)CCN(c1cc(Cl)ccc1CN1CCN(C(=O)OC(C(F)(F)F)C(F)(F)F)CC1)C2 [Example 29, 1,1,1,3,3,3-Hexafluoropropan-2-yl 4-(2-(8-acetyl-2,8-diazaspiro[4.5]decan-2-yl)-4-chlorobenzyl)piperazine-1-carboxylate]
–	≥ 75%	–	> 7.00	### (### is ≥ 75%)	–	O=C(OC(C(F)(F)F)C(F)(F)F)N1CCC2(CCCN2Cc2cc(Cl)cc(C3(C(=O)O)CCCC3)c2)CC1 [Example 134, 1-{3-Chloro-5-[(8-{[(1,1,1,3,3,3-hexafluoropropan-2-yl)oxy]carbonyl}-1,8-diazaspiro[4.5]decan-1-yl)methyl]phenyl} cyclopentane-1-carboxylic acid]
–	≥ 75%	–	> 7.00	### (### is ≥ 75%)	–	CN(Cc1ccc(C(F)(F)F)cc1CN1CCC(C(=O)O)CC1)C1(C)CCN(C(=O)OC(C(F)(F)F)C(F)(F)F)CC1 [Example 137, 1-(2-(((1-(((1,1,1,3,3,3-Hexafluoropropan-2-yl)oxy)carbonyl)-4-methylpiperidin-4-yl)(methyl)amino)methyl)-5-(trifluoromethyl)benzyl)piperidine-4-carboxylic acid]
–	≤ 25%	–	> 7.00	–	–	O=C(O)CN1CCC2(CCN(c3cc(C(F)(F)F)ccc3CN3CCCC34CCN(C(=O)OC(C(F)(F)F)C(F)(F)F)CC4)CC2)C1 [Example 153, 2-(8-(2-((8-(((1,1,1,3,3,3-Hexafluoropropan-2-yl)oxy)carbonyl)-1,8-diazaspiro[4.5]decan-1-yl)methyl)-5-(trifluoromethyl)phenyl)-2,8-diazaspiro[4.5]decan-2-yl)acetic acid]
–	≤ 25%	–	> 7.00	–	–	O=C(O)CN1CCC2(CC1)CCN(c1cc(C(F)(F)F)ccc1CN1CCCC13CCN(C(=O)OC(C(F)(F)F)C(F)(F)F)CC3)C2 [Example 154, 2-(2-(2-((8-(((1,1,1,3,3,3-Hexafluoropropan-2-yl)oxy)carbonyl)-1,8-diazaspiro[4.5]decan-1-yl)methyl)-5-(trifluoromethvl)phenyl)-2,8-diazaspiro[4.5]decan-8-yl)acetic acid]
–	≤ 25%	–	> 7.00	–	–	O=C(O)CN1CC2CN(c3cc(C(F)(F)F)ccc3CN3CCCC34CCN(C(=O)OC(C(F)(F)F)C(F)(F)F)CC4)CC2C1 (centres unmarked) [Example 155]
–	≤ 25%	–	> 7.00	–	–	O=C(O)CN1CCC2(CC1)CN(c1cc(C(F)(F)F)ccc1CN1CCCC13CCN(C(=O)OC(C(F)(F)F)C(F)(F)F)CC3)C2 [Example 156, 2-(2-(2-((8-(((1,1,1,3,3,3-Hexafluoropropan-2-yl)oxy)carbonyl)-1,8-diazaspiro[4.5]decan-1-yl)methyl)-5-(trifluoromethyl)phenyl)-2,7-diazaspiro[3.5]nonan-7-yl)acetic acid]
–	≤ 25%	–	> 7.00	–	–	O=C(O)CN1CC2(CCN(c3cc(C(F)(F)F)ccc3CN3CCCC34CCN(C(=O)OC(C(F)(F)F)C(F)(F)F)CC4)CC2)C1 [Example 157, 2-(7-(2-((8-(((1,1,1,3,3,3-Hexafluoropropan-2-yl)oxy)carbonyl)-1,8-diazaspiro[4.5]decan-1-yl)methyl)-5-(trifluoromethyl)phenyl)-2,7-diazaspiro[3.5]nonan-2-yl)acetic acid]
–	≤ 25%	–	> 7.00	–	–	O=C(O)CN1CC2(CCN(c3cc(CN4CCCC45CCN(C(=O)OC(C(F)(F)F)C(F)(F)F)CC5)cc(C(F)(F)F)c3)CC2)C1 [Example 158, 2-(7-(3-((8-(((1,1,1,3,3,3-Hexafluoropropan-2-yl)oxy)carbonyl)-1,8-diazaspiro[4.5]decan-1-yl)methyl)-5-(trifluoromethyl)phenyl)-2,7-diazaspiro[3.5]nonan-2-yl)acetic acid]

The next lines start with the compound.

SMILES	pIC50 (MGLL)	inhibition at 5 mg/kg (MAGL [1])	pIC50 (ABHD6)	pIC50 (MAGL [2]; [3])	% Inh MGLL PFC (Human, μM) (MAGL [2]; [4])	pIC50 (MAGL [2]; PFC (prefrontal cortex) proteome, read-out: IC50 MGLL PFC (Human))
CS(=O)(=O)N1CCC2(CCN(c3cc(Cl)ccc3CN3CCN(C(=O)OC(C(F)(F)F)C(F)(F)F)CC3)C2)CC1 [Example 30, 1,1,1,3,3,3-Hexafluoropropan-2-yl 4-(4-chloro-2-(8-(methylsulfonyl)-2,8-diazaspiro[4.5]decan-2-yl)benzyl)piperazine-1-carboxylate]	> 7.00	≤ 25%	< 6.00	–	–	–
O=C(OC(C(F)(F)F)C(F)(F)F)N1CCC2(CC1)CN(Cc1c(N3CC4COCC4C3)cccc1C(F)(F)F)C2 (centres unmarked) [Example 32, 1,1,1,3,3,3-Hexafluoropropan-2-yl 2-(2-(tetrahydro-1H-furo[3,4-c]pyrrol-5(3H)-yl)-6-(trifluoromethyl)benzyl)-2,7-diazaspiro[3.5]nonane-7-carboxylate]	> 7.00	≥ 75%	< 6.00	–	–	–
CN(Cc1cc(N2CCOC(C)(C(=O)O)C2)cc(C(F)(F)F)c1)C1(C)CCN(C(=O)OC(C(F)(F)F)C(F)(F)F)CC1 (centres unmarked) [Example 139]	–	≤ 25%	–	> 7.00	–	> 7.00
CN(Cc1ccccc1C1(C(=O)O)CCCC1)C1(C)CCN(C(=O)OC(C(F)(F)F)C(F)(F)F)CC1 [Example 141]	–	≥ 75%	–	> 7.00	### (### is ≥ 75%)	–
CN(Cc1ccc(Cl)cc1C1(C(=O)O)CCCC1)C1(C)CCN(C(=O)OC(C(F)(F)F)C(F)(F)F)CC1 [Example 142, 1-(5-Chloro-2-{[(1-{[(1,1,1,3,3,3-hexafluoropropan-2-yl)oxy]carbonyl}-4-methylpiperidin-4-yl)(methyl)amino]methyl}phenyl) cyclopentane-1-carboxylic acid]	–	≥ 75%	–	> 7.00	### (### is ≥ 75%)	–
CN(Cc1ccc(F)cc1C1(C(=O)O)CCCC1)C1(C)CCN(C(=O)OC(C(F)(F)F)C(F)(F)F)CC1 [Example 143, 1-(5-Fluoro-2-{[(1-{[(1,1,1,3,3,3-hexafluoropropan-2-yl)oxy]carbonyl}-4-methylpiperidin-4-yl)(methyl)amino]methyl}phenyl) cyclopentane-1-carboxylic acid]	–	≥ 75%	–	> 7.00	### (### is ≥ 75%)	–
CC(C)(C#Cc1c(F)cccc1CN1CCCC12CCN(C(=O)OC(C(F)(F)F)C(F)(F)F)CC2)C(=O)O [Example 147, 4-{2-Fluoro-6-[(8-{[(1,1,1,3,3,3-hexafluoropropan-2-yl)oxy]carbonyl}-1,8-diazaspiro[4.5]decan-1-yl)methyl]phenyl]-2,2-dimethylbut-3-ynoic acid]	–	≥ 75%	–	> 7.00	### (### is ≥ 75%)	–
O=C(O)C1CCN(c2c(Cl)cccc2CN2CCC3(CC2)CCN(C(=O)OC(C(F)(F)F)C(F)(F)F)C3)CC1 [Example 218, 1-(2-Chloro-6-((2-(((1,1,1,3,3,3-hexafluoropropan-2-yl)oxy)carbonyl)-2,8-diazaspiro[4.5]decan-8-yl)methyl)phenyl) piperidine-4-carboxylic acid]	–	≥ 75%	–	> 7.00	–	–
